Where “and” joins values, the source holds several entries; their conditions need not be identical. Equal entries are not always repeated. Ends that are not written are not given here. Peptide text beside a SMILES is read from it.
Columns and labels:
[1] = tested on: uninfected human erythrocytes; assay type: cell-based
Experimental: The haemolytic effect of analogs 5 and 6 was determined in uninfected erythrocytes. Cells were maintained in the same culture conditions in the presence of 10^−8 mol L^−1 peptides, for 24 h. Erythrocytes were centrifuged at 900g/8 min and free haemoglobin in the supernatant was assessed by spectrophotometer at 550 nm. Untreated cells were used as negative control to discount non-specific haemolysis. The haemolytic activity was expressed as percentage of the control. This positive control (100 % haemolysis) was prepared by treating the erythrocytes with distilled water.
The effects of the Ang II, peptides 5 and 6 in the erythrocyte human cells to define the haemolysis were seeded in a 96-well plate in the absence (control) or presence of 10^−8 mol L^−1 of the analogues, as already described.
Fig. 5 Haemolytic assay of human red blood cells were treated with distilled water; uninfected erythrocytes were kept in the same conditions used in the invasion assay with a control and each peptides tested (10^−8 mol L^−1), at 37 °C for 24 h. After incubation, the supernatant was collected, clarified at 900 g/8 min and the haemoglobin content was detected in a spectrophotometer at […]. Triple asterisk statistically significant compared with distilled water value p < 0.05.

[2] = tested on: non-infected human erythrocytes; assay type: cell-based
Experimental: The MHC of the peptides were assessed through the measurement of haemoglobin released by non-infected human erythrocytes in the presence of increasing concentrations of the compounds in the same culture conditions of the invasion assay. As described by Jin-Jiang, MHC is the highest peptide concentration that causes no detectable release of haemoglobin.

[3] = not given; remark: listed apart in the source
[4] = not given; remark: listed apart in the source
[5] = not given; remark: listed apart in the source
[6] = tested on: Plasmodium falciparum W2 strain, erythrocytic cycle; settings: read-out: IC50, suppression of erythrocytic invasion (rings formed) by P. falciparum; seven concentrations 10^−4 to 10^−14 mol L^−1, 24 h; non-linear regression, GraphPad Prism; n = 2
Source text: The erythrocytic cycle of Plasmodiumfalciparum was maintained in vitro by culturing W2 strains in 1640 medium, supplemented with A-type human blood and serum, as described in Saraiva et al. [6].
Sorbitol solution (5 %) was used to synchronize parasite cultures into the ring stage, according to Lambros and Vanderberg [18]. The resistant ring-forms are subsequently maintained in culture as described above. Erythrocytes infected by parasite mature forms at 2–3 % parasitaemia and 5 % haematocrit were kept in the presence or absence of 10^−8 mol L^−1 synthetic peptides, for 24 h. Invasion is assessed by the appearance of new ring forms. The percentage of invasion was determined by optical microscopy (1000× magnification). It represents the total number of cells infected by rings in 100 erythrocytes in at least ten random microscopic fields. The invasion assay was carried out using two different cell suspension and generated equivalent results
The IC50 values were calculated by using GraphPad Prism Software version 5.00 for Windows (GraphPad, San Diego, California, USA). Parameters: Nonlinear Regression; log (inhibitor) vs. response equation was chosen at least square (ordinary) fit method was applied. […]

[7] = not given; remark: listed apart in the source
[8] = tested on: P. gallinaceum sporozoite; settings: cited from earlier work; for biological (antiplasmodial) activity on P. gallinaceum sporozoites: Ala-replacement / deletion analogues and short peptides; for antiplasmodial activity against P. gallinaceum sporozoite: lactam bridged Ang II analogues
Source text: Chamlian et al. studied some lactam bridged Ang II analogues, which presented Asp and Lys insertion in order to restrict the peptide. […] They replaced each amino acid by Ala or deleted the residues of the native Ang II molecule. The biological activities of the analogues […]and […]on the P. gallinaceum sporozoites were equipotent to native Ang II [4], 75 and 79 % of activity, respectively.

[9] = tested on: P. falciparum red blood cells; settings: cited from earlier work
Source text: Saraiva et al. described studies that aimed to identify the molecular mechanisms induced by Ang II, which are involved in the modulation of P. falciparum erythrocytic cycle. […] Torres et al. studied the influence of restrict peptides in P. falciparum red blood cells.

[10] = tested on: Plasmodium gallinaceum mature sporozoites; assay: Effect of the peptides on salivary gland-derived Plasmodium gallinaceum sporozoites (membrane permeability, propidium iodide fluorescence); assay type: cell-based; settings: 60 μmol L^−1 peptide in PBS, 37 °C, 1 h, fluorescence microscopy, mean, n = 9
Experimental: Nine-thousand P. gallinaceum mature sporozoites were recovered from the salivary glands of Ae. aegypti and incubated in 50 μL of the PBS solution, with 40 μmol L^−1 digitonin (positive control), 60 μmol L^−1 peptides or negative controls, at 37 °C for 1 h. Cell membrane integrity was then monitored using a Carl Zeiss inverted fluorescence microscope (model Observer Axio Vision A.1) coupled to an image capture Zeiss AxioCam HR digital camera (1300 × 1030 pixels resolution and 8-bit quantization) after addition of 1 μL of the propidium iodide aqueous solution (200 μmol L^−1) in 5 μL of total solution volume. Images were obtained using a 40× objective lens and a green filter effect in red. The spectral range was set with the excitation at 538 nm within the visible spectrum in order to produce orange-red fluorescence centered at 619 nm, which was processed using the Axio 4.7 software.
The effect of the peptides on sporozoites was determined in vitro by fluorescence microscopy after one hour of incubation of the parasites with each peptide in the presence of propidium iodide (see Additional file 1). The results are reported as the per cent of fluorescent sporozoites. The analyses were carried out in triplicate using three different mosquito batches and a total of nine experiments were performed (n = 9). The effects of the peptides on P. gallinaceum sporozoites in vitro assay presented 64–94 % activity.
Fig. 2 Effects of peptides on membrane permeability expressed as the per cent of fluorescent mature sporozoites (mean ± standard deviation, n = 9). […] Positive control group (+): digitonin/PBS; negative control group (−): PBS.
Nine-thousand P. gallinaceum mature sporozoites were recovered from the salivary glands of Ae. aegypti and incubated in 50 µL of the PBS solution, with 40 μmol L^–1 digitonin (positive control), 60 μmol L^–1 peptides or negative controls, at 37 °C for one hour. Cell membrane integrity was then monitored using a Carl Zeiss inverted fluorescence microscope (model Observer Axio Vision A.1) coupled to an image capture Zeiss AxioCam HR digital camera (1,300 x 1,030 pixels resolution and 8-bit quantization) after addition of 1 µL of the propidium iodide aqueous solution (200 µmol L^–1) in 5 μL of total solution volume. Images were obtained using a 40X objective lens and a green filter effect in red. The spectral range was set with the excitation at 538 nm within the visible spectrum in order to produce orange-red fluorescence centered at 619 nm, which was processed using the Axio 4.7 software.

CC[C@H](C)[C@H](NC(=O)[C@H](Cc1ccc(O)cc1)NC(=O)[C@@H](NC(=O)[C@H](CCCNC(=N)N)NC(=O)[C@@H](N)CC(=O)O)C(C)C)C(=O)N[C@@H](Cc1cnc[nH]1)C(=O)N1CCC[C@H]1C(=O)N[C@@H](Cc1ccccc1)C(=O)O [Ang II, angiotensin II]
haemolytic activity (% of distilled water control) [1]: did not present hemolytic effects
MHC [2]: 10^−5 M

N[C@@H](Cc1ccc(O)cc1)C(=O)N[C@@H](Cc1c[nH]cn1)C(=O)N1CCC[C@H]1C(=O)N[C@@H](Cc1ccccc1)C(=O)O [Peptide 5, des-Asp^1,Arg^2,Val^3,Ile^5-AII] (H-YHPF-OH)
secondary conformation parallel: 12.1% and 13.4%
secondary conformation β-turn [3]: 25.7%
secondary conformation α-helix [4]: 9.7% (2×) and 9.6%
secondary conformation random coil [5]: 40.6% and 44.3% and 40.4%
MHC [2]: 10^−5 M
IC50 [6]: 0.89 nM
secondary conformation antiparallel [7]: 12% and 13.9%

CC[C@H](C)[C@H](NC(=O)[C@@H](N)C(C)C)C(=O)N1CCC[C@H]1C(=O)N[C@@H](Cc1ccccc1)C(=O)O [Peptide 6, des-Asp^1,Arg^2,Tyr^4,His^6-AII] (H-VIPF-OH)
secondary conformation parallel: 13%
secondary conformation β-turn [3]: 21.7%
secondary conformation α-helix [4]: 9.6% and 9.7% (2×)
secondary conformation random coil [5]: 40.4%
MHC [2]: 10^−6 M
IC50 [6]: 0.62 nM

Arg-Val-Tyr-Ile-His-Pro-Phe [deletion analogue of Ang II, Ferreira et al]
biological (antiplasmodial) activity on P. gallinaceum sporozoites [8]: about 50%

Asp-Arg-Val-Tyr-Ile-His-Pro [deletion analogue of Ang II, Ferreira et al]
biological (antiplasmodial) activity on P. gallinaceum sporozoites [8]: about 50%

CRDCVYIHPF (cysteine pairing not given here) [restrict peptide of Torres et al]
reduction of the parasitaemia by restrict peptides [9]: active in two different parasite species

DRVYAHPF [Ala-replacement Ang II analogue from earlier work]
biological (antiplasmodial) activity on P. gallinaceum sporozoites [8]: 75%

DRVYDIHKPF (also: sidechain bridge or staple (positions not given here)) [VC-26, lactam bridged Ang II analogue of Chamlian et al]
antiplasmodial activity against P. gallinaceum sporozoite [8]: 73%

DRVYHIPF [Peptide 1, [Ile^6,His^5]-AII]
per cent of fluorescent mature sporozoites (Spz Fluorescence, antiplasmodial activity) [10]: 94%

DRVYIAPF [Ala-replacement Ang II analogue from earlier work]
biological (antiplasmodial) activity on P. gallinaceum sporozoites [8]: 79%

DRVYIDHKPF (also: sidechain bridge or staple (positions not given here)) [VC-12, lactam bridged Ang II analogue of Chamlian et al]
antiplasmodial activity against P. gallinaceum sporozoite [8]: 87%

DRVYPF [Peptide 2, des-Ile^5,His^6-AII]
per cent of fluorescent mature sporozoites (Spz Fluorescence, antiplasmodial activity) [10]: 64%

Ile-His-Pro-Phe [short peptide, Ferreira et al]
biological (antiplasmodial) activity on P. gallinaceum sporozoites [8]: about 80%

RYHIPF [Peptide 4, [Ile^4,His^3]-des-Asp^1,Val^3-AII]
per cent of fluorescent mature sporozoites (Spz Fluorescence, antiplasmodial activity) [10]: 77%

Val-Tyr-Ile-His-Pro [short peptide, Ferreira et al]
biological (antiplasmodial) activity on P. gallinaceum sporozoites [8]: about 80%

Val-Tyr-Ile-His-Pro-Phe (VYIHPF; printed: Val-Tyr-Ile-His-Pro-Phe) [short peptide, Ferreira et al]
biological (antiplasmodial) activity on P. gallinaceum sporozoites [8]: about 80%

[2-Nal^3]- des-Asp^1,Arg^2,Tyr^4,His^6-AII [Peptide 9]
per cent of fluorescent mature sporozoites (Spz Fluorescence, antiplasmodial activity) [10]: 70%

[2-Nal^4]- des-Asp^1,Arg^2,Tyr^4,His^6-AII [Peptide 10]
per cent of fluorescent mature sporozoites (Spz Fluorescence, antiplasmodial activity) [10]: 73%

Source: publication PMC4634797, “New linear antiplasmodial peptides related to angiotensin II” (Malaria Journal, 2015)
